In article PMC12371036 (Nature Communications, 2025):

Columns and labels:
[1] = target: T1, UVR8^D96N/D107N (constitutive monomer) (Arabidopsis thaliana, UniProt Q9FN03, D96N/D107N); experiment: nanoDSF Tm increase with purified recombinant protein; type: binding
T1 sequence (Q9FN03 1-440 D96N/D107N): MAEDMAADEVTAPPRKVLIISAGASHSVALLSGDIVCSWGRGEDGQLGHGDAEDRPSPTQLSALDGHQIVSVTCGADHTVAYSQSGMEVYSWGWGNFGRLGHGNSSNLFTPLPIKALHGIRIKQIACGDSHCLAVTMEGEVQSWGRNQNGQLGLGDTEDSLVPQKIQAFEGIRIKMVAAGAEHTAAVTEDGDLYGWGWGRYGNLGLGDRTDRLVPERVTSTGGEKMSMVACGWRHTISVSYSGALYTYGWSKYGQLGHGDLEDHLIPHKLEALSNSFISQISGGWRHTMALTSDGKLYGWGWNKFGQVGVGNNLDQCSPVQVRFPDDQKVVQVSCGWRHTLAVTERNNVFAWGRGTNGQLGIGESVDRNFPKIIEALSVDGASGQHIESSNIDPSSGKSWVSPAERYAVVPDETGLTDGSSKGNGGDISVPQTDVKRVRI

[2] = target: UVR8 (UV RESISTANCE LOCUS8) (Arabidopsis thaliana, UniProt Q9FN03); experiment: MST; type: binding
[3] = target: T2, His-SUMO-UVR8 (wild-type UV … LOCUS8) (Arabidopsis thaliana), Q9FN03; experiment: SEC; details: remark: other sources report otherwise
T2 chain: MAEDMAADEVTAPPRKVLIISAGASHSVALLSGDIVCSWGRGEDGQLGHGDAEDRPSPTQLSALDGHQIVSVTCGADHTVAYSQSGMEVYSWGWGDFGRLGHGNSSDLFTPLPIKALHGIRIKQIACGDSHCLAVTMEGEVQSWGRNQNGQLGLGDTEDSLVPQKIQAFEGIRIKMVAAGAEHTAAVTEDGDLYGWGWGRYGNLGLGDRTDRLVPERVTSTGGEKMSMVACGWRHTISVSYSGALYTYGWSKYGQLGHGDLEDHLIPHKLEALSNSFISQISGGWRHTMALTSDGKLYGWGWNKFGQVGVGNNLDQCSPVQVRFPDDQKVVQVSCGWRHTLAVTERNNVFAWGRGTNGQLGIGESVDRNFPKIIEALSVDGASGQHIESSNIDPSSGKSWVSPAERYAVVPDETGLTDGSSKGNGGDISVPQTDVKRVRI

| Molecule | nanoDSF Tm increase with purified recombinant protein [1] | Kd [2] [µM] | stoichiometry N [3] |
| --- | --- | --- | --- |
| O=C(/C=C/c1ccc(O)cc1)c1c(O)cc(O)cc1O [NGC, naringenin chalcone] | significant increase in Tm was observed when NGC was incubated with the three monomeric forms | ~12 | – |
| His-SUMO-UVR8 (wild-type UV … LOCUS8), Q9FN03 1-440 (natural protein) MAEDMAADEVTAPPRKVLIISAGASHSVALLSGDIVCSWGRGEDGQLGHGDAEDRPSPTQLSALDGHQIVSVTCGADHTVAYSQSGMEVYSWGWGDFGRLGHGNSSDLFTPLPIKALHGIRIKQIACGDSHCLAVTMEGEVQSWGRNQNGQLGLGDTEDSLVPQKIQAFEGIRIKMVAAGAEHTAAVTEDGDLYGWGWGRYGNLGLGDRTDRLVPERVTSTGGEKMSMVACGWRHTISVSYSGALYTYGWSKYGQLGHGDLEDHLIPHKLEALSNSFISQISGGWRHTMALTSDGKLYGWGWNKFGQVGVGNNLDQCSPVQVRFPDDQKVVQVSCGWRHTLAVTERNNVFAWGRGTNGQLGIGESVDRNFPKIIEALSVDGASGQHIESSNIDPSSGKSWVSPAERYAVVPDETGLTDGSSKGNGGDISVPQTDVKRVRI | – | – | 2 |
